{"source": "patent US20050032858A1", "about": "“Novel heterocyclic compound and anti-inflamatory agent” (priority 2001, published 2005)", "key": {"[1]": {"tested_on": "mouse ear edema induced by TPA", "assay_type": "in vivo, ICR-strain male mouse", "conditions": "topical, measured 6 hours after TPA", "experimental": "This test was carried out referring to the methods of Carlson, R. P., et al. [Agents and Actions 17 (2): 197-204 (1985)] and of Chang, J., et al. [European Journal of Pharmacology 142: 197-205 (1987)]: 5 μg/20 μL of TPA (Sigma Chemical Co., Ltd.) dissolved in ethanol was applied on the anterior and posterior surfaces of the right ear of an ICR-strain male mouse (6 to 7 weeks old). The thickness of a specific area of each of the ears was measured 3 times by a digimatic micrometer 6 hours after the application. The mean values were calculated. Ear edema was determined by subtracting the mean thickness of the non-treated left ear from that of the TPA-applied right ear. A topical application activity was evaluated in a way that an acetone solution or a 0.1% Tween 80/acetone solution of a compound of the present invention was applied on the anterior and posterior surfaces of the right ear 30 minutes before and 15 minutes after the application of TPA. […] An oral administration activity was evaluated by forced oral administration of a suspension of a compound of the present invention in 2% Tween 80/distilled water an hour before applying TPA. […]"}, "[2]": {"tested_on": "acetic acid induced writhes", "test": "Acetic acid writhing", "assay_type": "in vivo, ICR-strain male mouse", "conditions": "i.p., 30 minutes before, vehicle control 25.2 ± 2.2", "experimental": "This test was carried out referring to the methods of Inoue, K., Motonaga, A. and Nishimura, T. [Arzneimittel Forshung/Drug Research 41 (1): 235-239 (1991)] and of Murata, T., et al. [Nature 388: 678-682 (1997)]: 7.5 mL/kg of a 0.9% aqueous solution of acetic acid was injected intraperitoneally into an ICR-strain male mouse (6 to 8 weeks old). The number of induced writhes (characteristic behavior of contracting the abdomen, twisting the body and/or extending the hind legs in agony) was counted in a period between 10 minutes and 20 minutes after the injection. A compound of the present invention was homogeneously suspended in 2% Tween 80/saline for injection use and injected intraperitoneally 30 minutes before the induction of stimulation by the acetic acid injection. Alternatively the compound was homogeneously suspended in 2% Tween 80/distilled water and orally administered an hour before the stimulation induction by the acetic acid injection. The analgesic activity of the compound of the present invention was evaluated on the basis of how many writhes were suppressed by the administration. Indomethacin or aspirin was administered as the positive control."}}, "note": "Where two headings read alike, the source gives them in different places.", "data": [{"smiles": "CC(=O)OCC(=O)[C@@]1(O)[C@H](C)C[C@H]2[C@@H]3CCC4=CC(=O)C=C[C@]4(C)[C@@]3(F)[C@@H](O)C[C@@]21C", "note": "[DEX-Ac, dexamediasone-21-acetate]", "values": [{"measurement": "Ear edema inhibition (%)", "setting": "[1]; 1 mg/20 μL/ear × 2", "result": 79.6, "unit": "%"}]}, {"smiles": "COc1ccc2c(c1)c(CC(=O)O)c(C)n2C(=O)c1ccc(Cl)cc1", "note": "[Indomethacin, indomethacin]", "values": [{"measurement": "Ear edema inhibition (%)", "setting": "[1]; 3 mg/40 μL/ear × 2", "result": 63.5, "unit": "%"}, {"measurement": "No. of writhes (mean ± S.E.)", "setting": "[2]; 3 mg/kg", "result": "13.8 ± 3.0"}, {"measurement": "No. of writhes (mean ± S.E.)", "setting": "[2]; 10 mg/kg", "result": "4.8 ± 0.9"}]}, {"smiles": "CC(=O)Oc1ccccc1C(=O)O", "note": "[Aspirin, aspirin]", "values": [{"measurement": "No. of writhes (mean ± S.E.)", "setting": "[2]; 30 mg/kg", "result": "9.5 ± 2.0"}]}]}
